#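 Five concentrations, 48 hours, 96-well plates. GI50 = concentration required for 50% inhibition of growth.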 The source made the active and inactive calls. No stated cut-off is given here; in the data, active = GI50 up to about 1.1 µM and inactive = higher.
# How the values were obtained:
# Test in all cases: NCI-60 cell line screen, 48 h
# 786-0 = test system: 786-0
# A498 = test system: A498
# CAKI-1 = test system: CAKI-1
# CCRF-CEM = test system: CCRF-CEM
# DU-145 = test system: DU-145
# HCT-15 = test system: HCT-15
# HL-60 = test system: HL-60
# HT-29 = test system: HT-29
# MDA-MB-231 = test system: MDA-MB-231
# NCI-H460 = test system: NCI-H460
# NCI/ADR-RES = test system: NCI/ADR-RES
# OVCAR-3 = test system: OVCAR-3
# PC-3 = test system: PC-3
# RXF 393 = test system: RXF 393
# SF-268 = test system: SF-268
# SN12C = test system: SN12C
# U-251 = test system: U-251
# UACC-257 = test system: UACC-257
# UACC-62 = test system: UACC-62
# SNB-75 = test system: SNB-75
SMILES,GI50 (786-0),GI50 (A498),GI50 (CAKI-1),GI50 (CCRF-CEM),GI50 (DU-145),GI50 (HCT-15) [µM],GI50 (HL-60),GI50 (HT-29),GI50 (MDA-MB-231),GI50 (NCI-H460),GI50 (NCI/ADR-RES),GI50 (OVCAR-3),GI50 (PC-3),GI50 (RXF 393),GI50 (SF-268),GI50 (SN12C),GI50 (U-251),GI50 (UACC-257),GI50 (UACC-62),GI50 (SNB-75)
N=C(N)N/N=C\c1c(-c2cccc([N+](=O)[O-])c2)nc2sccn12,3.89 µM (inactive),25 µM (inactive),17.4 µM (inactive),2.93 µM (inactive),5.16 µM (inactive),9.68,28.9 µM (inactive),1.96 µM (inactive),2.15 µM (inactive),24.4 µM (inactive),> 100 µM (inactive),2.79 µM (inactive),6.7 µM (inactive),2.64 µM (inactive),2.97 µM (inactive),2.21 µM (inactive),2.79 µM (inactive),23.7 µM (inactive),29 µM (inactive),
C/C(=C\c1ccc(Cl)cc1)C(C)(C)C(=O)O,> 100 µM (inactive),> 100 µM (inactive),> 100 µM (inactive),52.5 µM (inactive),> 100 µM (inactive),> 100,> 100 µM (inactive),> 100 µM (inactive),> 100 µM (inactive),> 100 µM (inactive),> 100 µM (inactive),> 100 µM (inactive),> 100 µM (inactive),> 100 µM (inactive),> 100 µM (inactive),> 100 µM (inactive),> 100 µM (inactive),> 100 µM (inactive),> 100 µM (inactive),> 100 µM (inactive)
CC1(C)CNC(=O)C2(/C=N/C(C)(C)CNC(=O)C3(/C=N/1)CCCO3)CCCO2 (centres undefined),> 10 µM (inactive),> 10 µM (inactive),> 10 µM (inactive),> 10 µM (inactive),> 10 µM (inactive),> 10,> 10 µM (inactive),> 10 µM (inactive),> 10 µM (inactive),,> 10 µM (inactive),> 10 µM (inactive),> 10 µM (inactive),> 10 µM (inactive),> 10 µM (inactive),> 10 µM (inactive),> 10 µM (inactive),> 10 µM (inactive),> 10 µM (inactive),> 10 µM (inactive)
CCOC(=O)c1cc(C)nc2c1c(=O)n(-c1ccccc1)c(=O)n2CCCCN1CCN(c2ncccn2)CC1,> 100 µM (inactive),20.8 µM (inactive),23.4 µM (inactive),31.8 µM (inactive),> 100 µM (inactive),,25.4 µM (inactive),> 100 µM (inactive),80.7 µM (inactive),,> 100 µM (inactive),94 µM (inactive),61.4 µM (inactive),> 100 µM (inactive),> 100 µM (inactive),> 100 µM (inactive),> 100 µM (inactive),52.4 µM (inactive),37.2 µM (inactive),59 µM (inactive)
COc1ccc(/C=C2\N=C3N(Cc4ccccc4)C=C(N)N3C2=O)cc1,52.7 µM (inactive),88.1 µM (inactive),> 100 µM (inactive),89.5 µM (inactive),> 100 µM (inactive),> 100,55 µM (inactive),> 100 µM (inactive),36.2 µM (inactive),> 100 µM (inactive),> 100 µM (inactive),> 100 µM (inactive),> 100 µM (inactive),> 100 µM (inactive),> 100 µM (inactive),> 100 µM (inactive),30.3 µM (inactive),30.8 µM (inactive),> 100 µM (inactive),17.5 µM (inactive)
COc1ccc(-c2cc(C(O)C3CCCCN3)c3ccccc3n2)cc1 (centres undefined),8.34 µM (inactive),12.3 µM (inactive),5.86 µM (inactive),2.8 µM (inactive),8.39 µM (inactive),14.2,11.1 µM (inactive),3.11 µM (inactive),2.36 µM (inactive),3.05 µM (inactive),16.7 µM (inactive),14.4 µM (inactive),5.08 µM (inactive),4.58 µM (inactive),11.2 µM (inactive),10.6 µM (inactive),3.63 µM (inactive),2.15 µM (inactive),3.37 µM (inactive),4.31 µM (inactive)
N#CSCC1COc2ccccc2O1 (centres undefined),,> 10 µM (inactive),> 10 µM (inactive),0.628 µM (active),> 10 µM (inactive),9.89,2.55 µM (inactive),> 10 µM (inactive),> 10 µM (inactive),> 10 µM (inactive),> 10 µM (inactive),> 10 µM (inactive),> 10 µM (inactive),> 10 µM (inactive),> 10 µM (inactive),7.57 µM (inactive),> 10 µM (inactive),,> 10 µM (inactive),> 10 µM (inactive)
C[C@@H](CC(O)C(O)C(C)(C)O)C1CCC23CC12CCC1[C@@]2(C)CCC(O)C(C)(C)C2CC(OC2OC(CO)C(O)C(O)C2O)[C@]13C (some centres undefined),> 10 µM (inactive),> 10 µM (inactive),> 10 µM (inactive),> 10 µM (inactive),> 10 µM (inactive),> 10,> 10 µM (inactive),> 10 µM (inactive),> 10 µM (inactive),> 10 µM (inactive),> 10 µM (inactive),> 10 µM (inactive),> 10 µM (inactive),> 10 µM (inactive),> 10 µM (inactive),> 10 µM (inactive),> 10 µM (inactive),> 10 µM (inactive),> 10 µM (inactive),> 10 µM (inactive)
CC(NNC(=O)c1cc[n+]([BH2-]C#N)cc1)c1ccc(F)cc1 (centres undefined),> 100 µM (inactive),> 100 µM (inactive),> 100 µM (inactive),> 100 µM (inactive),> 100 µM (inactive),> 100,> 100 µM (inactive),> 100 µM (inactive),> 100 µM (inactive),> 100 µM (inactive),> 100 µM (inactive),> 100 µM (inactive),> 100 µM (inactive),> 100 µM (inactive),> 100 µM (inactive),> 100 µM (inactive),> 100 µM (inactive),> 100 µM (inactive),> 100 µM (inactive),> 100 µM (inactive)
